The subject of assay [1] is embryogenic callus from Double Take. Nature of the assay: Somatic embryo induction in liquid medium (flask), effects of sugar composition and addition of BA. Format: cell-based, Spathiphyllum (cultivar Double Take). Particulars: sucrose 0%, sorbitol 3%, fructose 1.1%, BA 0 ppm. As to the method: (§1) MS liquid medium (pH 5.8) containing 1% sucrose, 3% sorbitol, and MES 5 mM was used as basal medium. Proline and glutamic acid were added to the media at the following concentrations. […] The fresh weights the thus induced somatic embryos were measured (Table 1).
Media with compositions listed in Table 2 were prepared (compositions other than those listed in Table 2 were the same as those of the “somatic embryo induction medium.”).

The test system of assay [2] is embryogenic callus of the cultivar Petite. Nature of the assay: Somatic embryo induction in liquid medium (shaken Erlenmeyer flask), effects of proline and glutamic acid. Particulars: 0.05 g callus, 40 ml medium, 6 weeks. Format: cell-based, Spathiphyllum (cultivar Petite). As to the method: as §1

As for `O=C(CO)[C@@H](O)[C@H](O)[C@H](O)CO` [Fructose, fructose], in assay [1], the “Weight of somatic embryo” value was 3.8 (g)/flask. Turning to `N[C@@H](CCC(=O)O)C(=O)O` [Glutamic acid, glutamic acid], in assay [2] (proline 0 mM, glutamic acid 3 mM), the “Amount of embryo collected” value is listed as 3.5 g/flask.

As to `O=C(O)[C@@H]1CCCN1` [Proline, proline], the “Amount of embryo collected” value in assay [2] (proline 3 mM, glutamic acid 0 mM) is reported as 3.4 g/flask.
